Among the data in patent publication US10106534B2 (CELGENE QUANTICEL RESEARCH, INC., priority 2014, dated 2018) are IC50 values, retold here.

Where only a bound is given, the exact number is not on record here.

One test concerns the target JMJD2C (Homo sapiens (Human), UniProt Q9H3R0). As to the kind of experiment: In vitro enzyme inhibition assay for JMJD2C activity (TR-FRET). Type of test: biochemical. In a few lines: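 Demethylation product H3K9me2 quantified by TR-FRET ratio 665/615 after EDTA stop and 1 h with Eu-anti-H3K9me2 and streptavidin-APC; IC50 by curve fit. Reaction: 0.3 nM JMJD2C (AA 2-372, baculovirus), 2 μM α-ketoglutarate, 300 nM biotin-H3K9me3 peptide, pH 7.3 HEPES with Fe(II)/ascorbate, 30 min room temperature.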
(In general: Time-resolved FRET reads energy transfer from a long-lived donor to a nearby acceptor.)

The target in another test is JMJD3 (Homo sapiens, UniProt O15054). As to the kind of experiment: In vitro enzyme inhibition assay for JMJD3 activity (TR-FRET). Type of test: biochemical. As for the experimental part:
This assay determines the ability of a test compound to inhibit JMJD3 demethylase activity.
The enzymatic assay of JMJD3 activity is based upon Time Resolved-Fluorescence Resonance Energy Transfer (TR-FRET) detection. […] Reaction product was determined quantitatively by TR-FRET after the addition of detection reagent Phycolink Streptavidin-allophycocyanin (Prozyme) and Europium-anti-di-methylated histone H3 lysine 27 (H3K27me2) antibody (PerkinElmer) in the presence of 5 mM EDTA in LANCE detection buffer (PerkinElmer) at a final concentration of 50 nM and 1 nM, respectively.
The reaction mixture was incubated at room temperature for 30 minutes, and terminated by the addition of 6 μL of 5 mM EDTA in LANCE detection buffer containing 100 nM Phycolink Streptavidin-allophycocyanin and 2 nM Europium-anti-H3K27me2 antibody.

Test [1] relates to KYSE-150 esophageal carcinoma cell line. As to the kind of experiment: In vitro cell-based assay: cellular proliferation via BrdU incorporation (ELISA). Also on record: species or system human. Particulars: Homo sapiens, KYSE-150, 168 hours compound incubation. Summed up:
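BrdU incorporation during S-phase, detected colorimetrically at 450 nm by peroxidase ELISA, measured proliferation after 168 h compound exposure.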
In general terms: Uptake of a labelled nucleoside into DNA is a usual measure of proliferation.

Chain of JMJD2C (Q9H3R0 2-372): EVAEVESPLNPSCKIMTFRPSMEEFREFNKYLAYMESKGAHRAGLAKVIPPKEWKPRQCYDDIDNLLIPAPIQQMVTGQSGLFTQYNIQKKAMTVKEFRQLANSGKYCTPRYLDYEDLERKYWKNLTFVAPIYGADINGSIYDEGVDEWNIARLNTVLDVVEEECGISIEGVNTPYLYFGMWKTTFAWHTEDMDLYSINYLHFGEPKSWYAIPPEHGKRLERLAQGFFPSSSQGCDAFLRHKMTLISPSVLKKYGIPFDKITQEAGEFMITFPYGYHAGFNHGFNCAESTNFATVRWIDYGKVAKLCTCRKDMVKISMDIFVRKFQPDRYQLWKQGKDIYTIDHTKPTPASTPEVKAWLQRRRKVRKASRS

For the molecule `CCOc1ccc(N(C)c2ccc3c(c2)CCC[C@H]3CNc2cnccc2C(=O)O)cc1` [Example 185, 3-({[(1R)-6-[(4-ethoxyphenyl)(methyl)amino]-1,2,3,4-tetrahydronaphthalen-1-yl]methyl}amino)pyridine-4-carboxylic acid], the half-inhibitory concentration (IC50) against JMJD2C is 100 to 1000 nM; against JMJD3 it was 1000 to 10000 nM; in test [1], ≤ 100 nM.
Taken in the same sequence, the figures for `CC(C)c1ccc(N(C)c2ccc3c(c2)OCC[C@H]3CNc2cnccc2C(=O)O)cc1` [Example 187, 3-({[(4R)-7-{methyl[4-(propan-2-yl)phenyl]amino}-3,4-dihydro-2H-1-benzopyran-4-yl]methyl}amino)pyridine-4-carboxylic acid] were 100 to 1000 nM, 1000 to 10000 nM and ≤ 100 nM.
`CN(c1ccc(OC(F)F)cc1)c1ccc2c(c1)OCC[C@H]2CNc1cnccc1C(=O)O` [Example 190, 3-({[(4R)-7-{[4-(difluoromethoxy)phenyl](methyl)amino}-3,4-dihydro-2H-1-benzopyran-4-yl]methyl}amino)pyridine-4-carboxylic acid]: the IC50 against JMJD2C was 100 to 1000 nM; on JMJD3, 1000 to 10000 nM; in test [1], ≤ 100 nM.
For `CN(c1ccccc1)c1ccc2c(c1)CCC[C@H]2CNc1nnccc1C(=O)O` [Example 191, 3-({[(1R)-6-[methyl(phenyl)amino]-1,2,3,4-tetrahydronaphthalen-1-yl]methyl}amino)pyridazine-4-carboxylic acid], in that order: 100 to 1000 nM, 1000 to 10000 nM and ≤ 100 nM.
For `CN(c1ccc(CC(F)(F)F)cc1)c1ccc2c(c1)OCC[C@H]2CNc1cnccc1C(=O)O` [Example 192, 3-({[(4R)-7-{methyl[4-(2,2,2-trifluoroethyl)phenyl]amino}-3,4-dihydro-2H-1-benzopyran-4-yl]methyl}amino)pyridine-4-carboxylic acid], in that order: 100 to 1000 nM, 1000 to 10000 nM and ≤ 100 nM.
Take `CN(c1ccc(-n2ccnc2)cc1)c1ccc2c(c1)CCC[C@H]2CNc1cnccc1C(=O)O` [Example 193, 3-({[(1R)-6-{[4-(1H-imidazol-1-yl)phenyl](methyl)amino}-1,2,3,4-tetrahydronaphthalen-1-yl]methyl}amino)pyridine-4-carboxylic acid]: the half-inhibitory concentration (IC50) at JMJD2C was 100 to 1000 nM; against JMJD3, 1000 to 10000 nM; in test [1], 100 to 1000 nM.
For `CN(c1ccc(-n2ccnc2)cc1)c1ccc2c(c1)OCC[C@H]2CNc1cnccc1C(=O)O` [Example 194, 3-({[(4R)-7-{[4-(1H-imidazol-1-yl)phenyl](methyl)amino}-3,4-dihydro-2H-1-benzopyran-4-yl]methyl}amino)pyridine-4-carboxylic acid], the IC50 was in the range of 100 to 1000 nM against JMJD2C, 1000 to 10000 nM on JMJD3 and 1000 to 10000 nM in test [1].
For `CN(c1ccc(C2CCOCC2)cc1)c1ccc2c(c1)OCC[C@H]2CNc1cnccc1C(=O)O` [Example 202, 3-({[(4R)-7-{methyl[4-(oxan-4-yl)phenyl]amino}-3,4-dihydro-2H-1-benzopyran-4-yl]methyl}amino)pyridine-4-carboxylic acid], the results for the IC50 (on JMJD2C; against JMJD3; in test [1]) were 100 to 1000 nM, 1000 to 10000 nM and ≤ 100 nM, respectively.
For `CN(c1ccc(OCC2CC2)cc1)c1ccc2c(c1)CCC[C@H]2CNc1cnccc1C(=O)O` [Example 209, 3-({[(1R)-6-{[4-(cyclopropylmethoxy)phenyl](methyl)amino}-1,2,3,4-tetrahydronaphthalen-1-yl]methyl}amino)pyridine-4-carboxylic acid], in that order: 100 to 1000 nM, 1000 to 10000 nM and ≤ 100 nM.

For orientation: IC50 means the concentration that gives 50% inhibition. Low readings indicate inhibition by little substance, high ones a need for much substance.
